Data published in PMC13586308, “Cell type–selective targeting by heterobifunctional protein binders via in-cell enrichment” (Nature Communications, 2026).
Where two headings read alike, the source gives them in different places.

What was measured:
BRD4 43-463 Y97A = experiment: competitive FP assay, BRD4 tandem construct Y97A; type: binding
BRD2BD2 = BRD2BD2 (Homo sapiens, UniProt P25440); experiment: competitive FP assay, BRD2 BD2 -/+ FKBP12; type: binding
BRD2BD1 = molecular target: T1, BRD2BD1 (Homo sapiens, UniProt P25440); experiment: competitive FP assay, BRD2 BD1 -/+ FKBP12; type: binding
T1 construct: to the isolated BD1 and BD2 domains of BRD2, BRD3 and BRD4

BRD3BD1 = molecular target: T2, BRD3BD1 (Homo sapiens, UniProt Q15059); experiment: competitive FP assay, BRD3 BD1 -/+ FKBP12; type: binding
T2 construct: to the isolated BD1 and BD2 domains of BRD2, BRD3 and BRD4

BRD4 43-463 Y390A = experiment: competitive FP assay, BRD4 tandem construct Y390A; type: binding
BRD3BD2 = molecular target: T3, BRD3BD2 (Homo sapiens, UniProt Q15059); experiment: competitive FP assay, BRD3 BD2 -/+ FKBP12; type: binding
T3 construct: to the isolated BD1 and BD2 domains of BRD2, BRD3 and BRD4

BRD4 = molecular target: T4, BRD4 (Homo sapiens, UniProt O60885); experiment: NanoBRET BRD4, transient BRD4-NanoLuc in HEK293T cells; type: cell-based; settings: intact HEK293 cells
T4 construct: full-length BRD4 fused to NanoLuc at N terminus; expressed in transfected cells; host or cells: HEK293T
Protocol: The NanoBRET assay was performed as described previously[26],[39]. To study BRD4 engagement, we employed two models: cells stably expressing BRD4-NanoLuc and cells with transient BRD4-NanoLuc expression. For stable cell lines, the coding sequence of human BRD4 (Isoform B) was fused in-frame to NanoLuc luciferase under the control of the human ubiquitin C (UbC) promoter, with left and right homology arms targeting the AAVS1 locus in intron 1 of the PPP1R12C gene to facilitate genomic integration. PC3 prostate cancer cells were transfected with this construct and vectors expressing Cas9 and an sgRNA targeting the AAVS1 locus using Lipofectamine 3000 (Invitrogen). Successful integrands were selected with blasticidin. Expression of the fusion protein was confirmed by western blot. For transient experiments, full-length BRD4 fused to NanoLuc at N terminus, was cloned into an expression plasmid and transfected into HEK293T cells using FuGENE HD (Promega, E2312), with protein expression allowed for 20 h. Serially diluted inhibitors and BRD Tracer-02 (Promega, TracerDB ID: T000022) at the Tracer KD concentration (from TracerDB)[40] were dispensed into white 384-well plates (Greiner 781207) using an ECHO 550 acoustic dispenser (Labcyte). The cells were trypsinized, resuspended in Opti-MEM without phenol red (Life Technologies), and seeded at 2 × 10^5 cells/mL. After equilibration for 2 h at 37 °C/5% CO₂ following compound treatment, the NanoBRET® NanoGlo Substrate + Extracellular NanoLuc® Inhibitor (Promega, N2162) was added according to the manufacturer’s protocol, and filtered luminescence was measured on a PHERAstar plate reader (BMG Labtech) using a donor (450 nm BP) and acceptor (610 nm LP) filter pair. Competitive displacement data were analyzed using GraphPad Prism 9 with a normalized 3-parameter curve fit: Y = 100/(1 + 10^(X − log IC₅₀)). For BRET measurements after FKBP12 knockdown in stably expressing BRD4 Nano-Luc reporter cell line, 10 nL/per well of the FKBP12 PROTAC was pipetted to each well using Labcyte to achieve the final concentration of 200 nM and the plated cells were incubated over-night at 37 °C and 5% CO2. BRET measurements were performed as outlined above.

BRD4^BD1 = molecular target: T5, BRD4^BD1 (Homo sapiens, UniProt O60885); experiment: competitive fluorescence polarization assay, BRD4 BD1 -/+ presenter protein; type: binding; settings: for α BRD4^BD1 (binding cooperativity factor): ratio of binding in absence or presence of FKBP12
T5 construct: to the isolated BD1 and BD2 domains of BRD2, BRD3 and BRD4

BRD4^BD2 = molecular target: T6, BRD4^BD2 (Homo sapiens, UniProt O60885); experiment: competitive fluorescence polarization assay, BRD4 BD2 -/+ presenter protein; type: binding; settings: for α BRD4^BD2 (binding cooperativity factor): ratio of binding in absence or presence of FKBP12
T6 construct: to the isolated BD1 and BD2 domains of BRD2, BRD3 and BRD4

FKBP12 [1] = molecular target: T7, FKBP12 (Homo sapiens, UniProt P62942); experiment: competitive fluorescence polarization assay, binding to FKBP12; settings: competitive FP assay
FKBP12 [2] = molecular target: T7, FKBP12; experiment: NanoBRET FKBP12 in intact HEK293 cells; type: cell-based
MYC mRNA = experiment: quantitative RT-PCR of MYC mRNA, MV4-11; type: cell-based, human; settings: MV4-11
[3] = absence of FKBP12, 2 nM JQ1-FL tracer, read-out: Binding to BRD4^BD1 - FKBP12 Kd
[4] = presence of 15 µM FKBP12, read-out: Binding to BRD4^BD1 + FKBP12 Kd (converted)
[5] = absence of FKBP12, 2 nM JQ1-FL tracer, read-out: Binding to BRD4^BD2 - FKBP12 Kd
[6] = presence of 15 µM FKBP12, read-out: Binding to BRD4^BD2 + FKBP12 Kd (converted)

T7 sequence (P62942 whole entry): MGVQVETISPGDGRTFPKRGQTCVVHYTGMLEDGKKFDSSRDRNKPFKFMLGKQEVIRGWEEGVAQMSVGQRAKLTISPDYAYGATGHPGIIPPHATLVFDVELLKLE
T3 sequence (Q15059 306-415 limits assumed): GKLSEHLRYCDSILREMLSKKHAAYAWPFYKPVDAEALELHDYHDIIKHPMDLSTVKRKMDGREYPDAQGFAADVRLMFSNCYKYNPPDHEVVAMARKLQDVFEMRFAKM
BRD2BD2, sequence (P25440 344-453 limits assumed): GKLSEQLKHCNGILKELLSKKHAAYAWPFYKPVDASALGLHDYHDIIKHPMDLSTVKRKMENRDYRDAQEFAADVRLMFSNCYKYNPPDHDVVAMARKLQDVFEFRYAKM
T2 sequence (Q15059 34-140 limits assumed): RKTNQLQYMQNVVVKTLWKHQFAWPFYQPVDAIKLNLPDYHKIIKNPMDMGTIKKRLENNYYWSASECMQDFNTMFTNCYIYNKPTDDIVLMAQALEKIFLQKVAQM
T1 sequence (P25440 74-180 limits assumed): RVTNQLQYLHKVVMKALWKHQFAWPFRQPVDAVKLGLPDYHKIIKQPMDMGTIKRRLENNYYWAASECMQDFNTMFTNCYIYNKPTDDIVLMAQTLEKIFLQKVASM

SMILES | α BRD4 43-463 Y97A (BRD4 43-463 Y97A) | α BRD2BD2 (BRD2BD2) | α BRD2BD1 (BRD2BD1) | α BRD3BD1 (BRD3BD1) | α BRD4 43-463 Y390A (BRD4 43-463 Y390A) | α BRD3BD2 (BRD3BD2) | IC50 (BRD4) [nM] | Kd (BRD4^BD1; [3]) [nM] | Kd (BRD4^BD1; [4]) [nM] | α BRD4^BD1 (binding cooperativity factor) (BRD4^BD1) | Kd (BRD4^BD2; [5]) [nM] | Kd (BRD4^BD2; [6]) [nM] | α BRD4^BD2 (binding cooperativity factor) (BRD4^BD2) | Kd (FKBP12 [1]) [nM] | IC50 (FKBP12 [2]) [nM] | nanoBRET BRD4 IC50 (BRD4) | effect of CD36 inhibitor on myc repression upon a1dj treatment (MYC mRNA)
Cc1sc2c(c1C)C(c1ccc(Cl)cc1)=N[C@@H](CC(=O)OC(C)(C)C)c1nnc(C)n1-2 [JQ1, (+)-JQ1, reference compound] | 1.2 | 1.0 | 1.0 | 1.0 | 1.0 | 1.0 | – | – | – | – | – | – | – | – | – | – | –
Cc1sc2c(c1C)C(c1ccc(Cl)cc1)=NC(CC(=O)N1CCC(N3CCC(n4cc(C5CN(Cc6ccccn6)C(=O)C6CCCC5N6S(=O)(=O)c5cc(Cl)cc(Cl)c5)nn4)CC3)CC1)c1nnc(C)n1-2 (stereo not drawn) [a9c] | – | – | – | – | – | – | 155 | 280 ± 40 | 180 ± 20 | 1.6 | 310 ± 40 | 650 ± 90 | 0.5 | 2.2 | 107 | – | –
Cc1sc2c(c1C)C(c1ccc(Cl)cc1)=NC(CC(=O)N1CCC(N3CCC(n4cc(COCC5CN(Cc6ccccn6)C(=O)C6CCCC5N6S(=O)(=O)c5cc(Cl)cc(Cl)c5)nn4)CC3)CC1)c1nnc(C)n1-2 (stereo not drawn) [a9d] | – | – | – | – | – | – | 364 | 340 ± 40 | 140 ± 10 | 2.4 | 500 ± 90 | 450 ± 70 | 1.1 | 1.7 | 169 | – | –
Cc1sc2c(c1C)C(c1ccc(Cl)cc1)=NC(CC(=O)N1CCC(N3CCC(Cn4cc(C5CN(Cc6ccccn6)C(=O)C6CCCC5N6S(=O)(=O)c5cc(Cl)cc(Cl)c5)nn4)CC3)CC1)c1nnc(C)n1-2 (stereo not drawn) [a10c] | – | – | – | – | – | – | 497 | 120 ± 30 | 900 ± 100 | 0.1 | 170 ± 30 | – | – | 0.3 | 288 | – | –
Cc1sc2c(c1C)C(c1ccc(Cl)cc1)=NC(CC(=O)N1CCC(N3CCC(Cn4cc(COCC5CN(Cc6ccccn6)C(=O)C6CCCC5N6S(=O)(=O)c5cc(Cl)cc(Cl)c5)nn4)CC3)CC1)c1nnc(C)n1-2 (stereo not drawn) [a10d] | – | – | – | – | – | – | – | 140 ± 30 | 100 ± 30 | 1.4 | 170 ± 30 | 80 ± 20 | 2.1 | 1.6 | 241 | none | –
Cc1sc2c(c1C)C(c1ccc(Cl)cc1)=NC(CC(=O)N1CC(CN3CCC(n4cc(C5CN(Cc6ccccn6)C(=O)C6CCCC5N6S(=O)(=O)c5cc(Cl)cc(Cl)c5)nn4)CC3)C1)c1nnc(C)n1-2 (stereo not drawn) [a11c] | – | – | – | – | – | – | 1230 | – | 190 ± 30 | 5.3 | – | 450 ± 70 | 4.7 | 0.7 | 218 | – | –
Cc1sc2c(c1C)C(c1ccc(Cl)cc1)=NC(CC(=O)N1CC(CN3CCC(n4cc(COCC5CN(Cc6ccccn6)C(=O)C6CCCC5N6S(=O)(=O)c5cc(Cl)cc(Cl)c5)nn4)CC3)C1)c1nnc(C)n1-2 (stereo not drawn) [a11d] | – | – | – | – | – | – | 687 | 480 ± 70 | 40 ± 10 | 12 | – | 700 ± 100 | 1.8 | 0.8 | 165 | – | –
Cc1sc2c(c1C)C(c1ccc(Cl)cc1)=NC(CC(=O)N1CC(CN3CCC(Cn4cc(C5CN(Cc6ccccn6)C(=O)C6CCCC5N6S(=O)(=O)c5cc(Cl)cc(Cl)c5)nn4)CC3)C1)c1nnc(C)n1-2 (stereo not drawn) [a12c] | – | – | – | – | – | – | 748 | 390 ± 50 | 230 ± 20 | 1.7 | 800 ± 100 | 700 ± 90 | 1.1 | 1.8 | 280 | – | –
Cc1sc2c(c1C)C(c1ccc(Cl)cc1)=NC(CC(=O)N1CC(CN3CCC(Cn4cc(COCC5CN(Cc6ccccn6)C(=O)C6CCCC5N6S(=O)(=O)c5cc(Cl)cc(Cl)c5)nn4)CC3)C1)c1nnc(C)n1-2 (stereo not drawn) [a12d] | – | – | – | – | – | – | 514 | 250 ± 40 | 40 ± 10 | 6.3 | – | 590 ± 70 | 1.9 | 2.3 | 406 | – | –
Cc1sc2c(c1C)C(c1ccc(C#CCNC(=O)COCCn3cc(COCC4CN(Cc5ccccn5)C(=O)C5CCCC4N5S(=O)(=O)c4cc(Cl)cc(Cl)c4)nn3)cc1)=NC(CC(=O)OC(C)(C)C)c1nnc(C)n1-2 (stereo not drawn) [b3d] | – | – | – | – | – | – | 266 | 68 ± 9 | 200 ± 30 | 0.3 | 110 ± 30 | – | 0.1 | 1 | 15 | – | –
CCCCCCCC/C=C\CCCCCCCC(=O)ON1C(=O)CC(S(=O)(=O)O)C1=O (stereo not drawn) [sulfosuccinimidyl oleate (SSO), sulfosuccinimidyl oleate, reference compound] | – | – | – | – | – | – | – | – | – | – | – | – | – | – | – | – | did not observe any effect
